From ChEMBL document CHEMBL4190180 (Medchemcomm, 2016)

How the values were obtained:
[1] = Potentiation of doxorubicin-induced cytotoxicity in mouse L5178 cells assessed as combination index at ED75 in presence of 326:1 ratio of doxorubicin to test compound after 48 hrs by MTT assay; assay type: functional
[2] = target: T1, ATP-dependent translocase ABCB1 (Homo sapiens, UniProt P08183); assay: Inhibition of human ABCB1 expressed in mouse L5178 cells assessed as rhodamine-123 accumulation by measuring fluorescence activity ratio at 20 uM pretreated for 10 mins followed by rhodamine-123 addition measured after 20 mins by flow cytometric analysis; assay type: cell-based
T1 sequence (P08183 whole entry): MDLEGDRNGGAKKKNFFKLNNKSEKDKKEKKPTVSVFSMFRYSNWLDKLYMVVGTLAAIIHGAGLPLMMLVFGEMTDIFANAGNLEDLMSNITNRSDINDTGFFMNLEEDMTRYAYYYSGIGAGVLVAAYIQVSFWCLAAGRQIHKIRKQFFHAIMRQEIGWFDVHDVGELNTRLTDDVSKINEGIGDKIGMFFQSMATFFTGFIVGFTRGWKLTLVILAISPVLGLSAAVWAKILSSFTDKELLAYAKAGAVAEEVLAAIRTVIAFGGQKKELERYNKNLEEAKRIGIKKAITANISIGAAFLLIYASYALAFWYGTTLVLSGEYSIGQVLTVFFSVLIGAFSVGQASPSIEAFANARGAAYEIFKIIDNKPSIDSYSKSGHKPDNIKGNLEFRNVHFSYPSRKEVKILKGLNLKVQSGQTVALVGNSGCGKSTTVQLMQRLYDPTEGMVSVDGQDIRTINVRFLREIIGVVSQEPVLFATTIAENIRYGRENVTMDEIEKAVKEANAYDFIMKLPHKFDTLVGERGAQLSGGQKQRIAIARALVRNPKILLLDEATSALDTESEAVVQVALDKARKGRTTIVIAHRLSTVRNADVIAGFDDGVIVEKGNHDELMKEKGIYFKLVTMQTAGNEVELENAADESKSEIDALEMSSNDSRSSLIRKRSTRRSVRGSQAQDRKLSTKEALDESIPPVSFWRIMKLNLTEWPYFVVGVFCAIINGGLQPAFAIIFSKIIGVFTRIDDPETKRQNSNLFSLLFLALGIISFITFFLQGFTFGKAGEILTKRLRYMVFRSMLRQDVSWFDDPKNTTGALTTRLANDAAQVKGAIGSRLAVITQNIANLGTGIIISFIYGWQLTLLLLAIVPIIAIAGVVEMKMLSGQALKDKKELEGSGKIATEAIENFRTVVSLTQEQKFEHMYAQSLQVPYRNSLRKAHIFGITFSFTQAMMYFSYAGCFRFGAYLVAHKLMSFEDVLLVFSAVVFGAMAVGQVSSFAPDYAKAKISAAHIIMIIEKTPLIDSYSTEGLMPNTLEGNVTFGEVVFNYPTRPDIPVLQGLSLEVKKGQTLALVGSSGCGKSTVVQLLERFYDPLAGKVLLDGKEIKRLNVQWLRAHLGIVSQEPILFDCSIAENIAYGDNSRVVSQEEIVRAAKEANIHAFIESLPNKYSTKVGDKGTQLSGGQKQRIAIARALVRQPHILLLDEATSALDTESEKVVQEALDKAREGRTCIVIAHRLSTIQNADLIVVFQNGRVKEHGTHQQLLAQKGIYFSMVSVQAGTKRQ

[3] = target: T1, ATP-dependent translocase ABCB1; assay: Inhibition of human ABCB1 expressed in mouse L5178 cells assessed as potentiation of doxorubicin-induced cytotoxicity by measuring combination index at ED90 in presence of 20.4:1 ratio of doxorubicin to test compound after 48 hrs by MTT assay; assay type: cell-based
[4] = Potentiation of doxorubicin-induced cytotoxicity in mouse L5178 cells assessed as combination index at ED90 in presence of 163:1 ratio of doxorubicin to test compound after 48 hrs by MTT assay; assay type: functional
[5] = Potentiation of doxorubicin-induced cytotoxicity in mouse L5178 cells assessed as combination index at ED50 in presence of 163:1 ratio of doxorubicin to test compound after 48 hrs by MTT assay; assay type: functional
[6] = Potentiation of doxorubicin-induced cytotoxicity in mouse L5178 cells assessed as combination index at ED90 in presence of 81.5:1 ratio of doxorubicin to test compound after 48 hrs by MTT assay; assay type: functional
[7] = target: T1, ATP-dependent translocase ABCB1; assay: Inhibition of human ABCB1 expressed in mouse L5178 cells assessed as potentiation of doxorubicin-induced cytotoxicity by measuring combination index at ED90 in presence of 10.2:1 ratio of doxorubicin to test compound after 48 hrs by MTT assay; assay type: cell-based
MDA-MB-361 = assay: Antiproliferative activity against human MDA-MB-361 cells after 72 hrs by MTT assay; assay type: functional, cell-based; settings: MDA-MB-361, 72 h
[8] = Antiproliferative activity against mouse L5178 cells harboring human ABCB1 after 72 hrs by MTT assay; assay type: functional, cell-based; settings: L5178, 72 h
[9] = target: T1, ATP-dependent translocase ABCB1; assay: Inhibition of human ABCB1 expressed in mouse L5178 cells assessed as potentiation of doxorubicin-induced cytotoxicity by measuring combination index at ED50 in presence of 81.5:1 ratio of doxorubicin to test compound after 48 hrs by MTT assay; assay type: cell-based
[10] = Potentiation of doxorubicin-induced cytotoxicity in mouse L5178 cells assessed as combination index at ED50 in presence of 81.5:1 ratio of doxorubicin to test compound after 48 hrs by MTT assay; assay type: functional
[11] = target: T1, ATP-dependent translocase ABCB1; assay: Inhibition of human ABCB1 expressed in mouse L5178 cells assessed as potentiation of doxorubicin-induced cytotoxicity by measuring combination index at ED75 in presence of 20.4:1 ratio of doxorubicin to test compound after 48 hrs by MTT assay; assay type: cell-based
[12] = Potentiation of doxorubicin-induced cytotoxicity in mouse L5178 cells assessed as combination index at ED50 in presence of 326:1 ratio of doxorubicin to test compound after 48 hrs by MTT assay; assay type: functional
SH-SY5Y = assay: Antiproliferative activity against human SH-SY5Y cells after 48 hrs by MTT assay
[13] = target: T1, ATP-dependent translocase ABCB1; assay: Inhibition of human ABCB1 expressed in mouse L5178 cells assessed as potentiation of doxorubicin-induced cytotoxicity by measuring combination index at ED50 in presence of 20.4:1 ratio of doxorubicin to test compound after 48 hrs by MTT assay; assay type: cell-based
MDA-MB-231 = assay: Antiproliferative activity against human MDA-MB-231 cells after 72 hrs by MTT assay; assay type: functional, cell-based; settings: MDA-MB-231, 72 h
[14] = Antiproliferative activity against mouse L5178 cells after 72 hrs by MTT assay; assay type: functional, cell-based; settings: L5178, 72 h
[15] = Potentiation of doxorubicin-induced cytotoxicity in mouse L5178 cells assessed as combination index at ED75 in presence of 163:1 ratio of doxorubicin to test compound after 48 hrs by MTT assay; assay type: functional
[16] = Potentiation of doxorubicin-induced cytotoxicity in mouse L5178 cells assessed as combination index at ED90 in presence of 326:1 ratio of doxorubicin to test compound after 48 hrs by MTT assay; assay type: functional
[17] = target: T1, ATP-dependent translocase ABCB1; assay: Inhibition of human ABCB1 expressed in mouse L5178 cells assessed as potentiation of doxorubicin-induced cytotoxicity by measuring combination index at ED75 in presence of 81.5:1 ratio of doxorubicin to test compound after 48 hrs by MTT assay; assay type: cell-based
T47D = assay: Antiproliferative activity against human T47D cells after 72 hrs by MTT assay; assay type: functional, cell-based
[18] = Selectivity ratio of IC50 for human MCF7 cells to IC50 for human T47D cells; assay type: functional
[19] = Potentiation of doxorubicin-induced cytotoxicity in mouse L5178 cells assessed as combination index at ED75 in presence of 81.5:1 ratio of doxorubicin to test compound after 48 hrs by MTT assay; assay type: functional
MCF7 = assay: Antiproliferative activity against human MCF7 cells after 72 hrs by MTT assay; assay type: functional, cell-based; settings: MCF7, 72 h
[20] = target: T1, ATP-dependent translocase ABCB1; assay: Inhibition of human ABCB1 expressed in mouse L5178 cells assessed as potentiation of doxorubicin-induced cytotoxicity by measuring combination index at ED75 in presence of 10.2:1 ratio of doxorubicin to test compound after 48 hrs by MTT assay; assay type: cell-based
[21] = target: T1, ATP-dependent translocase ABCB1; assay: Inhibition of human ABCB1 expressed in mouse L5178 cells assessed as rhodamine-123 accumulation by measuring fluorescence activity ratio at 2 uM pretreated for 10 mins followed by rhodamine-123 addition measured after 20 mins by flow cytometric analysis; assay type: cell-based
[22] = target: T1, ATP-dependent translocase ABCB1; assay: Inhibition of human ABCB1 expressed in mouse L5178 cells assessed as potentiation of doxorubicin-induced cytotoxicity by measuring combination index at ED90 in presence of 81.5:1 ratio of doxorubicin to test compound after 48 hrs by MTT assay; assay type: cell-based
[23] = target: T1, ATP-dependent translocase ABCB1; assay: Inhibition of human ABCB1 expressed in mouse L5178 cells assessed as potentiation of doxorubicin-induced cytotoxicity by measuring combination index at ED50 in presence of 10.2:1 ratio of doxorubicin to test compound after 48 hrs by MTT assay; assay type: cell-based

| SMILES | Ratio [2] | IC50 (MDA-MB-361) [µM] | IC50 (SH-SY5Y) [µM] | IC50 (MDA-MB-231) [µM] | CI [1] | CI [3] | CI [4] | CI [5] | CI [6] | CI [7] | IC50 [8] [µM] | CI [9] | CI [10] | CI [11] | CI [12] | CI [13] | IC50 [14] [µM] | CI [15] | CI [16] | CI [17] | other results |
| --- | --- | --- | --- | --- | --- | --- | --- | --- | --- | --- | --- | --- | --- | --- | --- | --- | --- | --- | --- | --- | --- |
| CC(C)(F)CC[C@@H]1OC(C)(C)O[C@]1(C)[C@H]1CC[C@@]2(F)C3=CC(=O)[C@@H]4C[C@H]5OC(C)(C)O[C@H]5C[C@]4(C)[C@H]3CC[C@]12C | 89.78 | 53.8 | 126 | 98.4 | 0.59 | 0.07 | 0.34 | 0.6 | 0.27 | 0.06 | 82.3 | 0.24 | 0.7 | 0.12 | 0.72 | 0.21 | 88.6 | 0.44 | 0.52 | 0.16 | IC50 (T47D): 49.2 µM; Ratio IC50 [18]: 3; CI [19]: 0.42; IC50 (MCF7): 128 µM; CI [20]: 0.11; Ratio [21]: 11.02; CI [22]: 0.11; CI [23]: 0.23 |
| CC(C)(F)CC[C@@H]1OC(C)(C)O[C@]1(C)[C@H]1CC[C@@]2(O)C3=CC(=O)[C@@H]4C[C@H]5OC(C)(C)O[C@H]5C[C@]4(C)[C@H]3CC[C@]12C | 38.62 | 30.9 | 70.7 | 48.9 | 0.96 | 0.19 | 0.71 | 0.85 | 0.56 | 0.16 | 50.1 | 0.35 | 0.8 | 0.19 | 1.04 | 0.19 | 48.3 | 0.76 | 0.91 | 0.33 | IC50 (T47D): 70.3 µM; CI [19]: 0.66; IC50 (MCF7): 63.1 µM; CI [20]: 0.17; Ratio [21]: 1.59; CI [22]: 0.33; CI [23]: 0.19 |
| CC(C)(O)CC[C@@H]1OC(C)(C)O[C@]1(C)[C@H]1CC[C@@]2(O)C3=CC(=O)[C@@H]4C[C@H]5OC(C)(C)O[C@H]5C[C@]4(C)[C@H]3CC[C@]12C | 11.28 | 69.2 | 127 | 106 | 0.55 | 0.07 | 0.46 | 0.67 | 0.68 | 0.11 | 106 | 0.39 | 0.74 | 0.14 | 0.61 | 0.27 | 82.9 | 0.55 | 0.51 | 0.22 | IC50 (T47D): 84.7 µM; CI [19]: 0.71; IC50 (MCF7): 75.1 µM; CI [20]: 0.18; Ratio [21]: 3.33; CI [22]: 0.12; CI [23]: 0.31 |

The next compounds have a lower IC50 (SH-SY5Y) than those just listed; values first:

| Ratio [2] | IC50 (MDA-MB-361) [µM] | IC50 (SH-SY5Y) [µM] | IC50 (MDA-MB-231) [µM] | SMILES | CI [1] | CI [3] | CI [4] | CI [5] | CI [6] | CI [7] | IC50 [8] [µM] | CI [9] | CI [10] | CI [11] | CI [12] | CI [13] | IC50 [14] [µM] | CI [15] | CI [16] | CI [17] | other results |
| --- | --- | --- | --- | --- | --- | --- | --- | --- | --- | --- | --- | --- | --- | --- | --- | --- | --- | --- | --- | --- | --- |
| 57.36 | 13.8 | 20.8 | 38.5 | CC(C)(O)CC[C@@H]1OC(C)(C)O[C@]1(C)[C@H]1CC=C2C3=CC(=O)[C@@H]4C[C@H]5OC(C)(C)O[C@H]5C[C@]4(C)[C@H]3CC[C@@]21C | 0.81 | 0.37 | 0.86 | 0.93 | 0.82 | 0.39 | 19.3 | 1.09 | 0.99 | 0.44 | 0.9 | 0.54 | 14.6 | 0.89 | 0.73 | 0.87 | IC50 (T47D): 10.9 µM; Ratio IC50 [18]: 3; CI [19]: 0.89; IC50 (MCF7): 30.1 µM; CI [20]: 0.45; Ratio [21]: 1.28; CI [22]: 0.69; CI [23]: 0.55 |
| 109.37 | 11.8 | 18.8 | 50.2 | CC(C)(F)CC[C@@H]1OC(C)(C)O[C@]1(C)[C@H]1CC=C2C3=CC(=O)[C@@H]4C[C@H]5OC(C)(C)O[C@H]5C[C@]4(C)[C@H]3CC[C@@]21C | 0.84 | 0.28 | 0.95 | 0.8 | 0.89 | 0.22 | 17.4 | 0.78 | 0.73 | 0.36 | 0.79 | 0.48 | 14.1 | 0.87 | 0.9 | 0.73 | IC50 (T47D): 17.4 µM; Ratio IC50 [18]: 3; CI [19]: 0.8; IC50 (MCF7): 43.8 µM; CI [20]: 0.34; Ratio [21]: 31.15; CI [22]: 0.69; CI [23]: 0.56 |
|  |  | 0.14 |  | COc1cccc2c1C(=O)c1c(O)c3c(c(O)c1C2=O)C[C@@](O)(C(=O)CO)C[C@@H]3O[C@H]1C[C@H](N)[C@H](O)[C@H](C)O1 [DOXORUBICIN] |  |  |  |  |  |  | 3.54 |  |  |  |  |  | 0.23 |  |  |  |  |
